Laboratory results published in patent US20250262214A1, “INTERMITTENT DOSING REGIMEN FOR AZENOSERTIB IN TREATING CANCER” (Zeno Management, Inc., priority 2022, published 2025).
Entries after “also recorded” stand apart in the source; their conditions may differ.

Assays:
Wee1 = biological target: T1, Wee1 (Homo sapiens, UniProt P30291); assay: PK/PD correlation, Wee1 target engagement (p-CDK1 in skin biopsies); type: in vivo
T1 construct: from tissue; host or cells: skin biopsies of treated subjects
From the text: CDK1 phosphorylation (pCDK-1) is mediated by Wee1. It is contemplated that Wee1 inhibition by Azenosertib results in pCDK1 inhibition.

[1] = Phase 1 Azenosertib monotherapy study, PK, safety and RP2D; type: in vivo, human
Description: (§1) In this example, a Phase 1a dose escalation and Phase 1b dose expansion clinical study was carried out to evaluate the safety and pharmacokinetics (PK), i.e. steady state exposure (AUC0-24) and concentration maximum (Cmax) of Azenosertib monotherapy.
(§2) In some cohorts, a phase 1a dose escalation was carried out starting at doses below 200 mg, escalating to 200 mg, 300 mg, 350 mg, 400 mg, and 450 mg total daily dose in continuous dosing regimen. The dose used in Phase 1b was 300 mg QD.
(§3) In some cohorts, a phase 1a dose escalation was carried out starting at doses of 350 mg, 400 mg, 450 mg and 500 mg total daily dose at a 5:2 or 4:3 dosing regimen. The doses used in Phase 1b were 350 mg and 400 mg at 5:2 dosing regimen.
In this example, a Phase 1 Azenosertib dose optimization study was carried out to evaluate the recommended phase II dose (RP2D) of Azenosertib monotherapy.
(§4) A total of 127 heavily pretreated subjects with advanced solid tumors were treated with Azenosertib monotherapy at ascending dose levels of either continuous daily dosing or intermittent weekly administration schedules. Across all tumor types, 74 subjects were treated with continuous dosing schedules and 53 subjects were treated with intermittent dosing schedules.

[2] = tested on: human ovarian cancer SKOV3; assay: Human ovarian cancer SKOV3 animal model, tumor volume; type: in vivo; conditions: 80 mg/kg 3 cycles 5 days on/2 days off vs continuous 60 mg/kg, 21 days
Description: In an exemplary human ovarian cancer SKOV3 animal model, Azenosertib was administered at a continuous dose of 60 mg/kg or at an intermittent dosing of 80 mg/kg at 3 cycles of 5 days on/2 days off (5/2).

[3] = tested on: MDA-MB-468 triple negative breast cancer tumor model; assay: MDA-MB-468 triple negative breast cancer tumor model, tumor growth inhibition; type: in vivo; conditions: Azenosertib alone, 60 mg/kg
Description: In vivo exploration of dose and schedule of Azenosertib and PARPi (niraparib, talazoparib) including exploration of alternating dosing was evaluated.

[4] = tested on: breast ductal carcinoma HCC1569; assay: Breast ductal carcinoma HCC1569 model, tumor volume; type: in vivo, human
Description: In an exemplary breast ductal carcinoma HCC1569 model, Azenosertib was administered at a dose of about 100 mg/kg at intermittent dosing regimen of 3 cycles of 4 days on/3 days off (4/3) and 3 days on/4 days off (3/4) and compared with a lower continuous dose (e.g., 60 mg/kg). Tumor volume change was plotted in FIG. 1G and corresponding change in body weight in FIG. 1H until about 24 days post-initiation of treatment.

[5] = tested on: ovarian cancer and uterine serous carcinoma (USC); assay: Phase 1a/1b Azenosertib monotherapy study, tumor response (RECIST 1.1); type: in vivo, human
Description: as §1, §2, §3
Tumor assessments (per RECIST 1.1) were carried out every 2 cycles (6 weeks) in subjects recruited in the study. There were no biomarker requirements to enroll in the study; nor were there any prior therapy requirements. Individuals in the cohorts represented multiple tumor types (FIG. 9A). Heavily pretreated subjects with advanced solid tumors were included in continuous and intermittent dosing cohorts (Table 6).
51 subjects were enrolled with Uterine Serous Carcinoma (USC) or High Grade Serous Ovarian Cancer (HGSOC) after multiple prior therapies in cohorts treated with continuous or intermittent dosing schedules (Table 7A) and intermittent dosing schedule only (Table 7B).
as §4

[6] = tested on: non-small cell lung carcinoma (NSCLC) A427; assay: Non-small cell lung carcinoma (NSCLC) A427 model, tumor volume and body weight; type: in vivo, human
Description: In an exemplary non-small cell lung carcinoma (NSCLC) A427 model, Azenosertib was administered at a higher intermittent dose than a corresponding lower continuous dose. For example, Azenosertib was administered at 56 mg/kg in 4 dosing cycles of 5 days on/2 days off (5/2) and compared with a lower continuous dose of 40 mg/kg. Similarly, 112 mg/kg of Azenosertib in 4 dosing cycles of 5 days on/2 days off was compared with a lower continuous dose of 80 mg/kg.
The tumor volume was measured (FIG. 1C) as well as body weight (FIG. 1D) for 28 days post initiation of treatment.
In an exemplary non-small cell lung carcinoma (NSCLC) A427 model, Azenosertib was administered at a higher intermittent dose than a corresponding lower continuous dose. For example, Azenosertib was administered at 100 mg/kg in 4 dosing cycles of 4 days on/3 days off (4/3) and compared with a lower continuous dose of 60 mg/kg.
Change in tumor volume over 25 days post tumor initiation is shown in FIG. 1E, while corresponding change in body weight during treatment is shown in FIG. 1F.

[7] = intermittent dosing cohort, platinum-resistant ovarian cancer and USC, median follow-up 9.2 months

T1 sequence (P30291 whole entry): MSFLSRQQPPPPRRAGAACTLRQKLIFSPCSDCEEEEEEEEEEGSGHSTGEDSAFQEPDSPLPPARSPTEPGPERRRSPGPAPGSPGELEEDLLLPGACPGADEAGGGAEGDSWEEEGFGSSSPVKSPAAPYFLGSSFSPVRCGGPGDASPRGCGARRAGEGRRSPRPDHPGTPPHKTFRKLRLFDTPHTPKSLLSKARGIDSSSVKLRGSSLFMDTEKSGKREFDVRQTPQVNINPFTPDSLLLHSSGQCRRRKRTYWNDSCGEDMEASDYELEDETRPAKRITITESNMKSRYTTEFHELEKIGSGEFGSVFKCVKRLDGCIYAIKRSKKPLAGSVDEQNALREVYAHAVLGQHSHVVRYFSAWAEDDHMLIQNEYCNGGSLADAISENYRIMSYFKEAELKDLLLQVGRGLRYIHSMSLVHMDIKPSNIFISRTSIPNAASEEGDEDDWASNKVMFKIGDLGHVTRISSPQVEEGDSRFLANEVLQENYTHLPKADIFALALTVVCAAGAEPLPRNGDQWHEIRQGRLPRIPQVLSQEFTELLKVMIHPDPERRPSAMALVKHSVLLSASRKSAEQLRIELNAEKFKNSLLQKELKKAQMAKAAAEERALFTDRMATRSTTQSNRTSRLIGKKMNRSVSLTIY

decrease of p-CDK1 levels (Wee1; dose of greater than about 300 mg once daily): at least 50%
p-CDK1 levels in skin biopsies following treatment relative to baseline (Wee1; skin biopsies): decreases in p-CDK1 levels
Structure (SMILES): C=CCn1c(=O)c2cnc(Nc3ccc(N4CCN(C)CC4)cc3)nc2n1-c1ccc2c(n1)[C@@](O)(CC)CC2 [Azenosertib, (R)-2-allyl-1-(7-ethyl-7-hydroxy-6,7-dihydro-5H-cyclopenta[b]pyridin-2-yl)-6-((4-(4-methylpiperazin-1-yl)phenyl)amino)-1,2-dihydro-3H-pyrazolo[3,4-d]pyrimidin-3-one]
steady state exposure AUC (0-24), intermittent RP2D vs continuous ([1]; 400 mg QD 5/2 compared to 300 mg QD continuous administration): more than doubled
cases of febrile neutropenia and sepsis ([1]; Azenosertib monotherapy including intermittent dosing): no observed cases of febrile neutropenia and sepsis
RP2D as a monotherapy ([1]; daily (QD), 5 days on, 2 days off (5/2) weekly schedule): 400 mg
discontinuations due to TRAEs ([1]; intermittent cohorts): no reported discontinuation; also recorded: No discontinuations due to TRAEs
gastrointestinal, fatigue, and hematologic Grade 3 and 4 treatment-related adverse events (TRAEs) ([1]; intermittent versus continuous dosing): comparable or favorable versus continuous dosing
safety and tolerability, intermittent vs continuous dosing ([1]; monotherapy): improved tolerability
maximal concentration (Cmax) levels, intermittent vs continuous dosing regimen ([1]; monotherapy, Phase 1): higher maximal concentration (Cmax) levels
change in tumor volume, intermittent vs continuous dosing [2]: more efficacious; also recorded: higher efficacy than continuous dosing in reducing tumor volume
tumor growth inhibition (TGI) [3]: 52.6%
tumor volume, intermittent vs continuous dosing ([4]; about 100 mg/kg 3 cycles 4/3 and 3/4 vs continuous 60 mg/kg, about 24 days): more efficacious
efficacy of 4 days on/3 days off vs 3 days on/4 days off ([4]; about 100 mg/kg, 3 cycles): comparable in efficacy
overall Objective Response Rate (ORR %) ([5]; Azenosertib monotherapy, N=51, N with at least 1 scan=40): 27.5%
subjects with stable disease (SD) or partial response (PR) as best overall response ([5]; USC and HGSOC subjects): 95%
subjects with target lesion reductions from baseline scans ([5]; USC and HGSOC subjects): 89%
ORR % [5, 7]: 36.8%
mPFS [5, 7]: 6.5 months
median PFS ([5]; ovarian, early follow up of median 4.4 months): around 5.1 months
tumor volume, intermittent vs continuous dosing ([6]; 100 mg/kg 4 cycles 4 days on/3 days off vs continuous 60 mg/kg, 25 days): more efficacious; also recorded: slightly more efficacy than lower continuous dosing
tumor volume, intermittent vs continuous dosing ([6]; 56 or 112 mg/kg 4 cycles 5 days on/2 days off vs continuous 40 or 80 mg/kg, same total cumulative dose, 28 days): more efficacious; also recorded: more efficacy in reducing tumor volume than lower continuous dosing
tolerability (body weight) ([6]; all doses (40, 80 mg/kg continuous; 56, 112 mg/kg 5/2)): well tolerated
